Results published in PubChem BioAssay (NCI).
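Exposure lasted 48 hours, with cells grown in 96-well plates and compounds tested at five concentrations. Here, GI50 denotes the concentration required for 50% inhibition of growth. TGI: concentration producing complete growth inhibition.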

Columns and labels:
Assay in all cases: inhibition of tumour cell growth, NCI panel, 48 h
[1] = tested on: HCC-2998 colon
[2] = tested on: HOP-92 NSCLC
[3] = tested on: NCI-H23 lung
[4] = tested on: HCT-116 colon
[5] = tested on: UACC-257 melanoma
[6] = tested on: BT-549 breast
[7] = tested on: NCI-H460 lung
[8] = tested on: HOP-62 NSCLC
[9] = tested on: ACHN renal
[10] = tested on: SK-MEL-2 melanoma
[11] = tested on: KM12 colon
[12] = tested on: CAKI-1 renal
[13] = tested on: SF-268 CNS
[14] = tested on: SF-539 CNS
[15] = tested on: SK-MEL-5 melanoma
[16] = tested on: OVCAR-4 ovarian
[17] = tested on: OVCAR-8 ovarian
[18] = tested on: RXF 393 renal
[19] = tested on: HL-60(TB) leukemia
[20] = tested on: SR leukemia
[21] = tested on: COLO 205 colon
[22] = tested on: MCF7 breast
[23] = tested on: K-562 leukemia
[24] = tested on: A549 NSCLC
[25] = tested on: SF-295 CNS
[26] = tested on: HCT-15 colon
[27] = tested on: DU-145 prostate
[28] = tested on: UO-31 renal
[29] = tested on: TK-10 renal
[30] = tested on: MALME-3M melanoma
[31] = tested on: SNB-19 CNS
[32] = tested on: U251 CNS
[33] = tested on: RPMI-8226 leukemia
[34] = tested on: SK-MEL-28 melanoma
[35] = tested on: UACC-62 melanoma
[36] = tested on: HT29 colon
[37] = tested on: PC-3 prostate
[38] = tested on: 786-0 renal
[39] = tested on: IGROV1 ovarian
[40] = tested on: LOX IMVI melanoma
[41] = tested on: SNB-75 CNS
[42] = tested on: OVCAR-3 ovarian
[43] = tested on: NCI-H522 lung
[44] = tested on: MDA-MB-231 breast
[45] = tested on: MOLT-4 leukemia
[46] = tested on: HS 578T breast
[47] = tested on: OVCAR-5 ovarian
[48] = tested on: SW-620 colon
[49] = tested on: T-47D breast
[50] = tested on: SN12C renal
[51] = tested on: M14 melanoma
[52] = tested on: CCRF-CEM leukemia
[53] = tested on: A498 renal
[54] = tested on: EKVX NSCLC
[55] = tested on: SK-OV-3 ovarian
[56] = tested on: NCI/ADR-RES ovarian
[57] = tested on: NCI-H226 lung
[58] = tested on: MDA-MB-435

Q: With `COC(=O)C1=C(C(=O)ON)[C@@H]2C=C[C@@]1([C@@H](Cc1ccccc1)Nc1ccccc1)O2` as the compound, how does the GI50 [1] read?
A: 17.2 µM

Q: And the TGI [1]?
A: 32.5 µM

Q: What about the GI50 [2] of the same compound?
A: 1.5 µM

Q: What about the TGI [2] of the same compound?
A: 2.88 µM

Q: What about the GI50 [3] of the same compound?
A: 14.1 µM

Q: What about the TGI [3] of the same compound?
A: 28.9 µM

Q: And the GI50 [4]?
A: 1.67 µM

Q: What about the TGI [4] of the same compound?
A: 3.24 µM

Q: And the GI50 [5]?
A: 2.07 µM

Q: And the TGI [5]?
A: 4.5 µM

Q: What about the GI50 [6] of the same compound?
A: 7.06 µM

Q: And the TGI [6]?
A: 19.6 µM

Q: What about the GI50 [7] of the same compound?
A: 16.6 µM

Q: What about the TGI [7] of the same compound?
A: 32.4 µM

Q: And the GI50 [8]?
A: 16.9 µM

Q: What about the TGI [8] of the same compound?
A: 32.4 µM

Q: What about the GI50 [9] of the same compound?
A: 1.67 µM

Q: What about the TGI [9] of the same compound?
A: 3.04 µM

Q: And the GI50 [10]?
A: 15.6 µM

Q: And the TGI [10]?
A: 30 µM

Q: What about the GI50 [11] of the same compound?
A: 15.5 µM

Q: What about the TGI [11] of the same compound?
A: 32.1 µM

Q: And the GI50 [12]?
A: 1.61 µM

Q: What about the TGI [12] of the same compound?
A: 2.96 µM

Q: And the GI50 [13]?
A: 14 µM

Q: And the TGI [13]?
A: 28.5 µM

Q: What about the GI50 [14] of the same compound?
A: 15.5 µM

Q: And the TGI [14]?
A: 29 µM

Q: What about the GI50 [15] of the same compound?
A: 14.7 µM

Q: What about the TGI [15] of the same compound?
A: 27.8 µM

Q: And the GI50 [16]?
A: 1.62 µM

Q: And the TGI [16]?
A: 3.04 µM

Q: And the GI50 [17]?
A: 14.4 µM

Q: What about the TGI [17] of the same compound?
A: 27.9 µM

Q: What about the GI50 [18] of the same compound?
A: 1.67 µM

Q: What about the TGI [18] of the same compound?
A: 3.04 µM

Q: And the GI50 [19]?
A: 1.45 µM

Q: And the TGI [19]?
A: 6.18 µM

Q: And the GI50 [20]?
A: 2.02 µM

Q: And the TGI [20]?
A: 10.4 µM

Q: And the GI50 [21]?
A: 1.77 µM

Q: And the TGI [21]?
A: 3.57 µM

Q: And the GI50 [22]?
A: 2.34 µM

Q: What about the TGI [22] of the same compound?
A: 8.12 µM

Q: What about the GI50 [23] of the same compound?
A: 2.46 µM

Q: And the TGI [23]?
A: 8.72 µM

Q: What about the GI50 [24] of the same compound?
A: 16.9 µM

Q: What about the TGI [24] of the same compound?
A: 32.2 µM

Q: What about the GI50 [25] of the same compound?
A: 15.1 µM

Q: And the TGI [25]?
A: 28.8 µM

Q: What about the GI50 [26] of the same compound?
A: 1.76 µM

Q: And the TGI [26]?
A: 4.1 µM

Q: And the GI50 [27]?
A: 1.84 µM

Q: And the TGI [27]?
A: 3.67 µM

Q: And the GI50 [28]?
A: 1.51 µM

Q: What about the TGI [28] of the same compound?
A: 2.84 µM

Q: And the GI50 [29]?
A: 1.7 µM

Q: What about the TGI [29] of the same compound?
A: 3.08 µM

Q: What about the GI50 [30] of the same compound?
A: 1.69 µM

Q: And the TGI [30]?
A: 3.2 µM

Q: And the GI50 [31]?
A: 16 µM

Q: And the TGI [31]?
A: 29.5 µM

Q: And the GI50 [32]?
A: 14.3 µM

Q: And the TGI [32]?
A: 27.6 µM

Q: And the GI50 [33]?
A: 2.13 µM

Q: And the TGI [33]?
A: 5.32 µM

Q: What about the GI50 [34] of the same compound?
A: 1.93 µM

Q: What about the TGI [34] of the same compound?
A: 3.54 µM

Q: What about the GI50 [35] of the same compound?
A: 6.37 µM

Q: And the TGI [35]?
A: 19.3 µM

Q: What about the GI50 [36] of the same compound?
A: 1.89 µM

Q: What about the TGI [36] of the same compound?
A: 3.97 µM

Q: And the GI50 [37]?
A: 1.84 µM

Q: And the TGI [37]?
A: 3.74 µM

Q: What about the GI50 [38] of the same compound?
A: 1.85 µM

Q: What about the TGI [38] of the same compound?
A: 3.57 µM

Q: What about the GI50 [39] of the same compound?
A: 2.03 µM

Q: And the TGI [39]?
A: 4.01 µM

Q: And the GI50 [40]?
A: 1.5 µM

Q: What about the TGI [40] of the same compound?
A: 2.88 µM

Q: And the GI50 [41]?
A: 12.4 µM

Q: And the TGI [41]?
A: 24.9 µM

Q: What about the GI50 [42] of the same compound?
A: 1.57 µM

Q: And the TGI [42]?
A: 3 µM

Q: And the GI50 [43]?
A: 1.48 µM

Q: What about the TGI [43] of the same compound?
A: 3.41 µM

Q: And the GI50 [44]?
A: 1.79 µM

Q: What about the TGI [44] of the same compound?
A: 3.78 µM

Q: What about the GI50 [45] of the same compound?
A: 2.86 µM

Q: What about the TGI [45] of the same compound?
A: 7.71 µM

Q: And the GI50 [46]?
A: 19.5 µM

Q: What about the TGI [46] of the same compound?
A: 68.7 µM

Q: What about the GI50 [47] of the same compound?
A: 15.6 µM

Q: And the TGI [47]?
A: 31 µM

Q: What about the GI50 [48] of the same compound?
A: 1.8 µM

Q: And the TGI [48]?
A: 3.51 µM

Q: What about the GI50 [49] of the same compound?
A: 1.61 µM

Q: And the TGI [49]?
A: 4.17 µM

Q: What about the GI50 [50] of the same compound?
A: 1.87 µM

Q: And the TGI [50]?
A: 3.69 µM

Q: And the GI50 [51]?
A: 1.87 µM

Q: And the TGI [51]?
A: 3.89 µM

Q: And the GI50 [52]?
A: 2.43 µM

Q: And the TGI [52]?
A: 8.2 µM

Q: What about the GI50 [53] of the same compound?
A: 12.3 µM

Q: What about the TGI [53] of the same compound?
A: 24.8 µM

Q: What about the GI50 [54] of the same compound?
A: 1.83 µM

Q: What about the TGI [54] of the same compound?
A: 4.16 µM

Q: And the GI50 [55]?
A: 15.6 µM

Q: What about the TGI [55] of the same compound?
A: 29.2 µM

Q: And the GI50 [56]?
A: 17.4 µM

Q: What about the TGI [56] of the same compound?
A: 35.9 µM

Q: And the GI50 [57]?
A: 14.5 µM

Q: And the TGI [57]?
A: 28.8 µM

Q: And the GI50 [58]?
A: 4.33 µM

Q: And the TGI [58]?
A: 16.5 µM
